The source of these data is patent publication US20080279961A1, “TELOMERE TARGETING AGENTS AS STEM CELLS DIRECTED TREATMENTS” (priority 2007, published 2008).

Bounds are passed on as bounds.

One assay has as its system gamma-H2AX. The assay can be described thus: gamma-H2AX immunoblotting and immunofluorescence. The assay is classed as cell-based, human. The following applies: UXF1138L cells, 1 μM, Western blot. The method, then:
During phosphorylated H2AX (gamma-H2AX) and hTERT immunofluorescence staining, approximately 75,000 UXF1138L cells/chamber were seeded onto 8 chamber glass slides (Costar) 24 hrs prior to RHPS4 treatment. After exposure to 1 μM RHPS4 for 1, 6, or 24 hours, cells were washed twice with PBS and air dried. Cells were fixed and permeabilized by immersion into ice-cold methanol/acetone (1:1; 3×1 min). Slides were blocked overnight at 4° C. with 5% BSA in PBS and washed with PBS (3×) before incubation (2 hrs) with anti-gamma-H2AX mouse monoclonal antibody (Upstate, Waltham, Mass.; 1:250 in PBS) or hTERT monoclonal antibody (NCL-L-hTERT Novacastra, Newcastle, UK; 1:40) respectively. Control cells were probed with mouse IgG (Santa Cruz Biotechnolog Inc., Santa Cruz, Calif.). Slides were washed 3× with PBS, before incubation with a goat anti-mouse FITC conjugated secondary antibody (Sigma; 1:100, 3 h). Following further PBS washes (3×), slides were incubated with 1:5000 DAPI (2 mg/ml; Sigma), washed 3× in PBS and mounted with Vectashield mounting media. Images were visualized as described above.
During immunoblotting for gamma-H2AX, cells were grown to 50 to 80% confluent in 6-well plates (Falcon) and treated with 1 μM RHPS4 for 1, 6, and 24 hours. […] Histones were dissolved in water and protein concentration was determined using the BioRad protein assay (BioRad Laboratories, Hercules Calif.). […]

In assay [1] the test system is Saos-2, HEK293T, UXF 1138, H460. The assay can be described thus: MTT assay in cell lines with short and long telomeres. It counts as cell-based, human.
Assay [2] relates to HEK293T human embryonic kidney cells. As to the kind of experiment: HTCA colony assay on normal embryonic kidney cells. It counts as cell-based. The method, then: In human tumor stem cell assay (HTCA)/clonogenic assay, single cell suspensions from in vivo studies above were washed in medium and passed through sieves and the resulting single cell suspensions seeded into soft agar (n=3 tumors per group) as described by us before (Fiebig et al., 2004). Single cell suspensions of cell lines were prepared by trypsinization from cells growing as monolayers on plastic. Briefly, 5,000 (HEK293T cells), 10,000 (PC3, MCF-7 and UXF1138L cells) or 50,000 (UXF1138L tumor tissue) vital cells were added to 0.2 ml Iscove's medium/20% fetal bovine serum/0.05% gentamycin containing 0.4% agar and plated on top of a base layer consisting of 0.2 ml medium with 0.75% agar. The next day, the agar layers were fed with Isocve's medium and cultures incubated at 37° C., 7% CO2 for approximately 11 days. Vital colonies were stained with 2-(4-iodophenyl)-3-(4-nitrophenyl)-5-phenyltetrazolium chloride (1 mg/ml) 24 hrs before evaluation, and colonies >70 μm were counted with an automated image analysis system (Omincon FAS IV, BIOSYS GmbH, Karben, Germany). Drug effect was assessed as growth inhibitory concentrations 50 and 70% (IC50, IC70). Methylcellulose was used to grow cord blood stem cells instead of soft agar. The seeding density was 20,000 cells/well. Stem cell growth factor supplemented and optimized methylcellulose (Methocult H4434) was purchased from Stem Cell Technologies (Vancouver, CA). Methylcellulose lacking growth factors was used as negative growth control. Statistical significance between treatment groups was evaluated by using the Student T-test.
To assess RHPS4 effects on normal stem cells, the human embryonic kidney cell line HEK293T was exposed to drug in the MTT and HTCA assays, and tested RHPS4 effects on colony forming units of the mononuclear cell fraction of human cord blood in methyl cellulose (FIG. 2C). The cord blood colony assay was performed with and without colony stimulating growth factors, only methylcellulose containing growth factors grew colonies. […] Additionally, in normal cell types as compared to tumor cells, low and pharmacodynamically relevant concentrations of RHPS4 (0.01 to 1 microM) did induce colony formation (FIG. 2C). To assure that the induction of colony growth by RHPS4 in normal stem cells is reproducible, cord blood from three different individuals and HEK293T cells from different passages were used. Data shown in FIG. 2C represent the mean and standard deviation from three independent experiments. […] However, the plating efficiency (actual number of colonies growing per total number of cells seeded) varied among the experiments and therefore the results are shown as % of control growth. E.g. HEK293T control colony growth ranged from a mean number of 54 to 463 colonies per well, but the least percentage (cut-off level) of growth induction by RHPS4 observed in either, the individual HEK293T or the cord blood experiments, was 150%. […] Instead, at RHPS4 levels that induced colony growth 2.4-fold (1 mircoM), bulk cell growth was inhibited to 60% of control (FIG. 2C).

The test system of assay [3] is normal monkey bone marrow stem cells. The assay can be described thus: methylcellulose colony growth of bone marrow stem cells. The assay is classed as cell-based. The note with it: low drug concentrations. The method, then:
For the monkey bone marrow and the human cord blood, methylcellulose from StemCell Technologies (Vancouver) was used to grow the stem cells as colonies. […] Cancer tissues are composed of various cell types, tumor cells, stromal fibroblasts, blood vessels, inflammatory cells, and adipocytes, all of which can carry over into single cell suspensions that are seeded into soft agar after tissue digestion. To examine whether tumor stem cells secrete cytokines that support their growth of enforce differentiation, the expression of 6 cytokines found in the supernatant of clonogenic assays was evaluated. Ultrasensitive immunoassay procedures based on the ELISA (enzyme linked immuno absorbent assay) technology were employed for the measurement of VEGF, TNF-alpha, GMCSF, GCSF IL4 and IL6. The assays were performed by the Cytokine Laboratory in the VA Hospital at the University of Maryland Baltimore and data provided as optical density readouts that were converted relative to a standard into pg/ml absolute cytokine values. The IL4 and 6 measurements were all negative; however VEGF, TNF-alpha, GMCSF and GCSF yielded interesting and differential results between tumor and normal stem cells. While cytokine levels decreased after RHPS4 treatment in tumor stem cell assays, they increased in normal stem cell cultures.

Turning to `COS(=O)(=O)[O-].Cc1cc2c3c([n+](C)c4ccc(F)cc4c3c1)-c1cc(F)ccc1N2C` [RHPS4, 3,11-difluoro-6,8,13-trimethyl-8H-quino[4,3,2-kl]acridinium methosulfate], the “time at which gamma-H2AX expression was seen” value in the assay on gamma-H2AX stood at 1 h. Besides, the “difference in inhibitory concentrations 50% between cell lines with short and long telomeres” value in assay [1] is “two log-fold”. In addition, in assay [2], the “concentrations that markedly inhibited tumor colony forming units and induced cord blood and HEK293T colony growth” value is on record as 0.1-1 mircoM; the “sensitivity of cord blood and HEK293T colony forming units versus tumor cell colonies” value is “over a log-fold less sensitive”. Further, the “stimulation of growth, number of colonies compared to vehicle” value in assay [2] (0.1 and 1 mircoM RHPS4, HEK293T) is “doubling to tripling the number of colonies”. The “induction of colony growth” value in assay [2] (1 mircoM RHPS4, HEK293T) is listed as 2.4 fold. The “drug concentration at which cell kill of normal stem cells was seen” value in assay [2] (HEK293T colony forming units) is around 10 mircoM. Also, in assay [2] (human embryonic kidney and cord blood vs tumor cells), the “concentrations inhibiting normal colony formation above those inhibiting tumor cell colony formation” value is recorded as “over 25 fold”. The “RHPS4 concentrations that inhibited colony formation” value in assay [2] (human embryonic kidney cells) was above 1 mircoM. Moreover, in assay [2] (individual HEK293T experiments, % of control growth), the “least percentage (cut-off level) of growth induction” value is on record as at least 150%. The “growth of normal monkey bone marrow stem cells” value in assay [3] was “induces the growth”.
